Experimental data from US20160115189A1, “PARASITICIDAL COMPOUNDS, METHODS, AND FORMULATIONS” (ELI LILLY AND COMPANY, priority 2013, published 2016).

System: adult brown tick (Rhipicephalus sanguineus)
Assay: Assay 5: adult brown tick infestations on dogs
Assay type: in vivo, Rhipicephalus sanguineus on beagle dogs
Conditions: 10 mg/kg topical spot-on
Experimental: The total number of live parasites present on each dog is determined for each interval, and this number is transformed using the natural logarithm transformation plus one (Ln count+1); addition of one to each count served to adjust for counts that are zero. Geometric mean (GM) group tick and flea counts are obtained via back-transformation of group mean transformed counts and subtracting one. The negative control group is used for comparison to treated groups for the calculation of percent efficacy (% reduction in live parasite counts). GM percent efficacy of treatments is calculated using the following formula: […]
The therapeutic (knockdown) and residual efficacy of the Example 1-4 compounds, when administered via topical spot-on at 10 mg/kg, is evaluated against adult brown tick (Rhipicephalus sanguine us) infestations on dogs. Twenty (20) beagle dogs are allocated to either an untreated, negative control group or one of four treated groups (n=4 dogs per group). Dogs are infested with approximately 50 unfed, adult R. sanguineus ticks on Days −1, 5, 12, 19 and 28. On Day 0, dogs are treated with Example 1-4 compound formulations (each, 50 mg/ml of technical active dissolved in a vehicle solution of propylene carbonate, benzyl alcohol, and isopropyl myristate), applied via topical spot-on in a volume so as to achieve a point dose of 10 mg/kg. Tick counts and classification are conducted on Days 2, 7, 14, 21 and 30. GM percent efficacy of treatments against ticks is calculated using the formula in Assay 3.

Row | Compound | GM percent efficacy (Day 2, R. sanguineus) | Geometric Mean Group Live Tick Counts (Day 2, R. sanguineus) | GM percent efficacy (Day 7, R. sanguineus) | Geometric Mean Group Live Tick Counts (Day 7, R. sanguineus) | GM percent efficacy (Day 14, R. sanguineus) | Geometric Mean Group Live Tick Counts (Day 14, R. sanguineus) | GM percent efficacy (Day 21, R. sanguineus) | Geometric Mean Group Live Tick Counts (Day 21, R. sanguineus) | GM percent efficacy (Day 30, R. sanguineus) | Geometric Mean Group Live Tick Counts (Day 30, R. sanguineus)
1 | CC[C@H]1CCC[C@H](NC(=O)c2ccncn2)[C@@H](C)C(=O)C2=C[C@@H]3[C@@H](C=C[C@@H]4C[C@@H](O[C@@H]5O[C@@H](C)[C@H](OC)C(OC)[C@H]5OC)C[C@@H]34)[C@@H]2CC(=O)O1 (stereo partly drawn) [Example 2, N-((2R,3aS,5aR,5bS,9S,14R,16aS,16bR)-9-ethyl-14-methyl-7,15-dioxo-2-(((2R,3R,5S,6S)-3,4,5-trimethoxy-6-methyltetrahydro-2H-pyran-2-yl)oxy)-2,3,3a,5a,5 b,6,7,9,10,11,12,13,14,15,16a,16b-hexadecahydro-1H-as-indaceno[3,2-d][1]oxacyclododecin-13-yl)pyrimidine-4-carboxamide] | (53.80) | 14.55 | (99.12) | 0.19 | (73.29) | 5.82 | (76.46) | 7.91 | (33.99) | 17.31
2 | CC[C@H]1CCC[C@H](NC(=O)c2ccncc2)[C@@H](C)C(=O)C2=C[C@@H]3[C@@H](C=C[C@@H]4C[C@@H](O[C@@H]5O[C@@H](C)[C@H](OC)C(OC)[C@H]5OC)C[C@@H]34)[C@@H]2CC(=O)O1 (stereo partly drawn) [Example 3, N-((2R,3aS,5aR,5bS, 9S,13S,14R,16aS, 16bR)-9-ethyl-14-methyl-7,15-dioxo-2-(((2R,3R,5S,6S)-3,4,5-trimethoxy-6-methyltetrahydro-2H-pyran-2-yl)oxy)-2,3,3a,5a,5b,6,7,9,10,11,12,13,14, 15,16a,16b-hexadecahydro-1H-as-indaceno[3,2-d][1]oxacyclododecin-13-yl)isonicolina-mide] | (62.52) | 11.80 | (85.01) | 3.23 | (76.50) | 5.12 | (82.44) | 5.90 | (41.02) | 15.47
3 | CC[C@H]1CCC[C@H](NC(=O)c2cc(C)on2)[C@@H](C)C(=O)C2=C[C@@H]3[C@@H](C=C[C@@H]4C[C@@H](O[C@@H]5O[C@@H](C)[C@H](OC)C(OC)[C@H]5OC)C[C@@H]34)[C@@H]2CC(=O)O1 (stereo partly drawn) [Example 4, N-((2R,3aS,5aR,5bS, 9S,13S,14R,16aS, 16bR)-9-ethyl-14-methyl-7,15-dioxo-2-(((2R,3R,5S,6S)-3,4,5-trimethoxy-6-methyltetrahydro-2H-pyran-2-yl)oxy)-2,3,3a,5a,5b,6,7,9, 10,11,12,13,14,15, 16a,16b-hexadecahydro-1H-as-indaceno[3,2-d][1]oxacyclododecin-13-yl)-5-methyl-isoxazole-3-carboxamide] | (67.71) | 10.17 | (96.60) | 0.73 | (82.25) | 3.86 | (81.13) | 6.34 | (26.88) | 19.17
